Results from PubChem BioAssay AID588569 (Sanford-Burnham Center for Chemical Genomics, 2011).
Active and inactive are the calls of the source.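 Rule for the calls: active = mean IC50 of 20 µM or lower in the 6 hour cytotoxicity test; inactive = the rest.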

System: CHO-XBP1 cytotoxicity, ATPlite luminescence, 6 h
Assay: CHO-XBP1 cell viability loss – 6 h exposure, ATPlite luminescence, cytotoxicity control for UPR adaptive arm activator project, SAR follow-up (AID 588569)

Row | SMILES | IC50
1 | Cc1cc(Br)cc(NC(=O)c2cc(-c3ccncc3)nc3ccccc23)c1 | > 80 µM (inactive)
2 | O=C(Nc1ccc(F)cc1)c1cc(-c2ccncc2)nc2ccccc12 | > 80 µM (inactive)
3 | O=C(Nc1ccc(Br)c(C(F)(F)F)c1)c1cc(-c2ccncc2)nc2ccccc12 | > 80 µM (inactive)
4 | Cc1nc(Nc2nc(-c3ccccc3)cc(=O)[nH]2)nc2ccccc12 | 36.4 µM (inactive)
5 | Cc1ccc(NC(=O)c2cc(-c3ccncc3)nc3ccccc23)cc1 | > 80 µM (inactive)
6 | O=C(Nc1ccc(Cl)cc1)c1cc(-c2ccncc2)nc2ccccc12 | 75.4 µM (inactive)
7 | O=C(Nc1ccc(C(F)(F)F)cc1)c1cc(-c2ccncc2)nc2ccccc12 | 70.4 µM (inactive)
